Source: US20190330142A1, “INHIBITORS OF MTOR-DEPTOR INTERACTIONS AND METHODS OF USE THEREOF” (The Regents of the University of California, priority 2016, published 2019)
Read-outs that look alike come from different tables or passages of the source.

Legend:
MM1.S MM cell line = assay: MTT cytotoxicity assay, MM1.S cells; format: cell-based; conditions: Homo sapiens, 48 hr
Experimental: The MTT assay was performed by seeding 1-2×10^4 target cells in 0.1 ml of complete media into wells of a 96 well microtiter plate. After incubation with compounds, the reduction of MTT to formazan by live cells was determined with a microplate ELISA reader equipped with a 570 nm filter. Quadruplicate wells were run for each group and the SD of each group was always <5% of the mean.

p21 expression = p21 expression immunoblot; format: cell-based
Experimental: (§1) These were then studied in more detail. […] This was clearly shown for 4d, 4e, 4 g, and 3 g.
(§2) The 8226 and MM1.S myeloma cell lines were purchased from ATCC. The cell lines were characterized by FISH analysis and shown to contain MAF/Ig translocations. Western blot confirmed a significant over-expression of DEPTOR protein. Both lines were tested for mycoplasma within the last 6 months and were negative. Western blot assay—Protein was extracted and separated by 12.5% SDS-PAGE as previously described (see new ref below). Proteins were transferred to polyvinylidene difluoride membranes and their expression was detected utilizing specific antibodies purchased from Cell Signaling (Beverly, Mass.).

RAPTOR-silenced MM cells = assay: MTT cytotoxicity in RAPTOR-silenced MM cells; format: cell-based; conditions: 48 hrs
Experimental: (§3) FIG. 5A-FIG. 5E depict exemplary assay data of compounds disclosed herein. […] Therapeutic indices (TIs) calculated as IC50 PBLs/IC50 for 8226 cells.
(§4) To compare anti-myeloma efficacy to non-specific toxicity, each of these 5 active derivatives were compared to compound B in their ability to inhibit survival of 8226 MM cells versus normal peripheral blood lymphocytes (PBLs). In head-to-head experiments, IC50 values for each target were calculated and compared. […] These derivatives were also tested for their anti-MM cytotoxicity in isogenic lines with RAPTOR knockdown.
The short hairpin RNAs (shRNA)/pLKO.1, targeting RAPTOR or a scrambled sequence (control) were obtained from Addgene. Lentivirus was produced by the UCLA Vector Core facility and stable cell lines were made by transducing cells with lentivirus and selecting in […].

[1] = tested on: normal peripheral blood lymphocytes (PBLs); assay: survival of normal peripheral blood lymphocytes versus 8226 MM cells; format: cell-based; conditions: 48 hr assays
Experimental: as §3, §4

8226 MM cell line = assay: MTT cytotoxicity assay, 8226 MM cells; conditions: for anti-MM cytotoxicity in MTT assay compared to parent B: 48 hr MTT
Experimental: In mTORC1, mTOR phosphorylates the p70S6 kinase. Thus, a Western blot was used to test for induction of p70 phosphorylation in this secondary screen. Compounds were tested at 0.5, 1, and 2 uM with 6 hrs in vitro exposure. […] A summary of the p70 phosphorylation data from 4 separate experiments where derivatives were used at 0.5 uM, is shown in FIG. 3B. These first 8 derivatives were also screened for cytotoxicity against the same 8226 MM cell line in 48 hr MTT assays.
P70 phosphorylation was measured in 8226 cells treated for 6 hrs. […] The structures and biological activity of all derivatives are shown in Tables 1-4, categorized by structural modification.
The MTT assay was performed by seeding 1-2×10^4 target cells in 0.1 ml of complete media into wells of a 96 well microtiter plate. After incubation with compounds, the reduction of MTT to formazan by live cells was determined with a microplate ELISA reader equipped with a 570 nm filter.
The induction of p70 phosphorylation by derivative compounds was determined by densitometry, comparing immunoblot signals of phosphorylated p70 vs total p70. This ratio was then compared to that resulting from parental compound B, with the latter ratio arbitrarily placed at ‘1’. The IC50 for MTT cytotoxicity was determined using a range of concentrations of derivatives. Percent apoptosis was enumerated by flow cytometry in drug-treated cultures by subtracting control apoptosis determined from DMSO-treated cultures.

[2] = tested on: p70 phosphorylation (mTORC1 activity) in 8226 cells; assay: p70 phosphorylation Western blot (TORC1 activity) in 8226 cells; format: cell-based; conditions: 6 hrs; for p70 phosphorylation vs compound B at lower concentrations: as low as 0.25 uM; for induction of p70 phosphorylation: 8226 cells, 0.5 uM, compared to compound B
Experimental: In mTORC1, mTOR phosphorylates the p70S6 kinase.
as §2

8226 cells = assay: apoptosis assay (activated caspase 3, flow cytometry) in 8226 cells; format: cell-based; conditions: 48 hrs
Experimental: as §1
To identify apoptotic cells, a phycoerythrin (PE)-conjugated antibody specific for activated caspase 3 (BD Biosciences) was used. For staining, 10^6 cells were washed with PB S and fixed and permeabilized with 0.5 ml cytofix/cytoperm solution. The cells were then incubated with a 1:5 dilution of PE-conjugated monoclonal anti-caspase 3 antibody for 30 mins and analyzed by flow cytometry.

DEPTOR/mTOR binding = biological target: T1, DEPTOR/mTOR binding (Homo sapiens, UniProt Q8TB45); assay: DEPTOR/mTOR co-immunoprecipitation in 8226 MM cells; format: cell-based; conditions: for DEPTOR/mTOR binding in MM cells: 6 hrs
T1 construct: Western blot confirmed a significant over-expression of DEPTOR protein; host or cells: 8226 multiple myeloma cells
T1 sequence (Q8TB45 whole entry): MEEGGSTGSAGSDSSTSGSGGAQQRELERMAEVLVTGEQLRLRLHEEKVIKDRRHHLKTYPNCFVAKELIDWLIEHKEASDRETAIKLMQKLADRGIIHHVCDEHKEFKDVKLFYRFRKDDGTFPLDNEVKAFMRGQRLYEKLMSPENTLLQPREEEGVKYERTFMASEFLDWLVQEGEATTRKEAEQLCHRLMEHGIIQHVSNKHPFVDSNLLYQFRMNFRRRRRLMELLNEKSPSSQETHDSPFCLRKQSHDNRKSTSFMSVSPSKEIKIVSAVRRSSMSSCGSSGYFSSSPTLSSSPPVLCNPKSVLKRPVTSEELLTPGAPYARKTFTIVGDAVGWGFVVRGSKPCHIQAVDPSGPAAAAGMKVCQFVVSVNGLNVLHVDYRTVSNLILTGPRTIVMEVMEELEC

DEPTOR-mTOR interaction = biological target: T2, DEPTOR-mTOR interaction (Homo sapiens, UniProt Q8TB45); assay: yeast-2-hybrid screen of NCI library; format: cell-based; conditions: pilot screening, hits
T2 construct: expressed in transfected cells; host or cells: yeast (two-hybrid)
T2 sequence (Q8TB45 whole entry): as above
Description: (§5) The third compound, NSC118305, presented several positions for variation but we were worried about the conjugated diene unit since such polyolefinic units might give a rise to non-selective toxicity. […] Therefore the final compound shown, NSC 126405, which was called simply compound B, was chosen as the first compound to modify to try to improve its activity.

[3] = tested on: normal hematopoietic colony forming cells; assay: colony formation of normal hematopoietic colony forming cells; format: cell-based; conditions: concentrations as high as 10 μM
Description: as §5

OPM2 = assay: therapeutic index against OPM2 myeloma cell line; format: cell-based
Description: (§6) FIG. 6A-FIG. 6D depict exemplary assay data for compounds disclosed herein. […] FIG. 6D highlights IC50 data for 3 g and Compound B (NSC126405).

DEPTOR = biological target: T3, DEPTOR (Homo sapiens, UniProt Q8TB45); assay: DEPTOR degradation; format: cell-based
T3 construct: endogenous in cells
T3 sequence (Q8TB45 whole entry): as above
Description: FIG. 7A-FIG. 7F depict exemplary assay data for compounds disclosed herein. […] FIG. 7E and FIG. 7F depict data showing the anti-tumor effect was blunted by further transfection of DEPTOR to over-express the protein.

8226 myeloma tumors = assay: subcutaneous xenograft tumor model of myeloma growth; format: in vivo, mice; conditions: 20 mg/kg IP daily for 4 days
Experimental: Peripheral blood was analyzed for white blood cell (WBC), hematocrit (HCT), hemoglobin concentration (HgI) and platelet count.
Briefly, mice were challenged subcutaneously with 5×10^6 8226 cells and when myeloma tumors reached 500 mm^3, mice were treated with DMSO, compound B, or compound 3g (at 20 mg/kg) IP daily for 4 days. Tumor size (mean+/−SD, n=5) was assessed each day (FIG. 8A). *=different from control (DMSO), p<0.05, **=different from compound B, p<0.05. After 4 days of treatment, mice were sacrificed and peripheral blood analyzed for WBC, hematocrit (HCT), hemoglobin concentration (HgI) and platelet count (FIG. 8B). Data are % of control (determination in DMSO-Rx'd mice), mean+/−SD, n=5. *=different from DMSO control, p<0.05.

H929 = assay: therapeutic index against H929 myeloma cell line; format: cell-based
Description: as §6

[4] = 48 h, read-out: MTT (IC50, uM) 8226

Structure (SMILES)	IC50 (MM1.S MM cell line) [µM]	p21 expression compared to parent compound B (p21 expression)	cytotoxicity against RAPTOR-silenced MM cells vs control shSCRAMBLE (RAPTOR-silenced MM cells)	therapeutic index (IC50 PBLs/IC50 for 8226 cells) compared to compound B [1]	IC50 (8226 MM cell line; [4]) [µM]	anti-MM cytotoxicity in MTT assay compared to parent B (8226 MM cell line)	p70 phosphorylation vs compound B at lower concentrations [2]	apoptosis activity compared to parent compound B (8226 cells)	DEPTOR/mTOR binding in MM cells (DEPTOR/mTOR binding; 0.5 uM)	inhibition of the DEPTOR-mTOR interaction (DEPTOR-mTOR interaction)	further results
CC(C)(C)OC(=O)NN=C1C(Cl)=C(Cl)C(Cl)=C1Cl [4g, tert-Butyl 2-(perchlorocyclopenta-2,4-dien-1-ylidene)hydrazine-1-carboxylate]	0.6	enhanced p21 expression	significantly decreased cytotoxicity	significantly improved therapeutic indices	0.1	enhanced cytotoxic effects	significantly more effective	enhanced compared to parent compound B	prevented DEPTOR/mTOR binding	–	–
Fc1ccc(NN=C2C(Cl)=C(Cl)C(Cl)=C2Cl)cc1 [3k, 1-(4-Fluorophenyl)-2-(perchlorocyclopenta-2,4-dien-1-ylidene)hydrazine]	1.3	–	significantly decreased cytotoxicity	significantly improved therapeutic indices	0.7	enhanced cytotoxic effects	significantly more effective	enhanced compared to parent compound B	prevented DEPTOR/mTOR binding	–	induction of p70 phosphorylation [2]: much better activity
CN(C)c1ccc(/C=C2\C=Cc3ccccc32)cc1F [NSC118305]	–	–	–	–	–	–	–	–	–	specifically inhibited the DEPTOR-mTOR interaction	–
NN=C1C(Cl)=C(Cl)C(Cl)=C1Cl [compound B, (Perchlorocyclopenta-2,4-dien-1-ylidene)hydrazine, reference compound]	3	–	–	–	–	–	–	–	ineffective	specifically inhibited the DEPTOR-mTOR interaction	IC50 (8226 MM cell line; 48 h, read-out: MTT (IC50, uM) 8226, 48 hr): 1.3 µM; IC50 (8226 MM cell line; read-out: MTT (IC50, uM) 8226, 48 hr): 1.5 µM; toxicity to normal hematopoietic colony formation [3]: not toxic to colony formation; induction of p70 phosphorylation [2]: consistently ineffective; DEPTOR/mTOR binding in MM cells (DEPTOR/mTOR binding; 1 uM): prevents DEPTOR/mTOR binding
CC(C)(C)C(=O)NN=C1C(Cl)=C(Cl)C(Cl)=C1Cl [4d, N′-(Perchlorocyclopenta-2,4-dien-1-ylidene)pivalohydrazide]	2	enhanced p21 expression	–	–	0.12	enhanced cytotoxic effects	significantly more effective	enhanced compared to parent compound B	–	–	–
FC(F)(F)c1cccc(NN=C2C(Cl)=C(Cl)C(Cl)=C2Cl)c1 [compound 3g, 1-(Perchlorocyclopenta-2,4-dien-1-ylidene)-2-(3-(trifluoromethyl)phenyl)hydrazine]	1	enhanced p21 expression	significantly decreased cytotoxicity	enhanced therapeutic index	0.17	enhanced cytotoxic effects	significantly more effective	enhanced compared to parent compound B	prevented DEPTOR/mTOR binding	–	therapeutic index versus NSC126405 (OPM2): enhanced therapeutic index; degradation of DEPTOR (DEPTOR): induces the rapid proteasome-dependent degradation of DEPTOR; anti-tumor efficacy (tumor size) (8226 myeloma tumors): more efficacious than NSC 126405; effect on normal WBC counts (8226 myeloma tumors; peripheral blood): only a minimal effect; therapeutic index versus NSC126405 (H929): enhanced therapeutic index; therapeutic index (IC50 PBLs/IC50 for 8226 cells) compared to compound B ([1]; listed as 3 g): significantly improved therapeutic indices; binding of DEPTOR to mTOR (DEPTOR/mTOR binding; concentration not given): inhibits binding of DEPTOR to mTOR
CCCCCCCCNS(=O)(=O)c1ccccc1 [NSC119670]	–	–	–	–	–	–	–	–	–	specifically inhibited the DEPTOR-mTOR interaction	–
O=C(c1ccc(F)cc1)N(N=C1C(Cl)=C(Cl)C(Cl)=C1Cl)C(=O)c1ccc(F)cc1 [compound 4e, 4-Fluoro-N-(4-fluorobenzoyl)-N′-(perchlorocyclopenta-2,4-dien-1-ylidene)benzohydrazide]	0.3	enhanced p21 expression	–	–	0.25	enhanced cytotoxic effects	significantly more effective	enhanced compared to parent compound B	–	–	–
